In data set [1] the test system is Differentiated U937 cells. In words: MTT assay (cell viability). It is filed as cell-based, human. The protocol: MTT Assay Differentiated U937 cells were pre-incubated with compound for 4 hrs in 5% FCS or 10% FCS for 24 hrs. […] After 1 hr incubation, the media were removed, 200 ul of DMSO added to each well and the plates were shaken lightly for 1 h prior to reading the absorbance at 550 nm. The percentage loss of cell viability was calculated for each well relative to vehicle (0.5% DMSO)-treatment. Consequently an apparent increase in cell viability for drug treatment relative to vehicle is tabulated as a negative percentage.
(Formazan colour is commonly taken as a measure of viable cells.)

For another data set, the system named is BEAS2B cells. In words: Poly I:C-induced ICAM-1 induction in BEAS2B cells. It is filed as cell-based. To be noted: Homo sapiens, BEAS-2B, read-out: BEAS2B (polyIC) ICAM1 IC50. Here is the method:
Poly I:C-Induced ICAM-1 Induction in BEAS2B Cells: Potency Poly I:C (1 ug/ml) (Invivogen Ltd., San Diego, Calif.) was transfected into BEAS2B cells (human bronchial epithelial cells, ATCC) with Oligofectamine (Invitrogen, Carlsbad, Calif.). Cells were pre-incubated with final concentrations of compound for 2 hrs. The level of ICAM1 expression on the cell surface was determined by cell-based ELISA. Briefly, at 18 hrs after poly I:C transfection, cells were fixed with 4% formaldehyde in PBS. After quenching endogenous peroxidase by adding 0.1% sodium azide and 1% hydrogen peroxide, cells were washed with wash-buffer (0.1% Tween in PBS: PBS-Tween). After blocking the wells with 5% milk in PBS-Tween for 1 hr, the cells were incubated with anti-human ICAM-1 antibody (Cell Signaling Technology, Danvers, Mass.) in 1% BSA PBS overnight at 4° C. Cells were washed with PBS-Tween and incubated with the secondary antibody (HRP-conjugated anti-rabbit IgG, Dako Ltd., Glostrup, Denmark). The ICAM-1 signal was detected by adding substrate and reading at 450 nm with a reference wavelength of 655 nm using a spectrophotometer. […] The measured OD 450-655 readings were corrected for cell number by dividing with the OD595 reading in each well.

The test system of data set [2] is U937 cells. The experiment in a line: LPS-induced IL-8 release in U937 cells. It is filed as cell-based. To be noted: Homo sapiens, read-out: DU937 (LPS) IL-8 IC50. Here is the method: (§1) LPS-Induced TNF Alpha/IL-8 Release in U937 Cells: Potency U937 cells, human monocytic cell line, were differentiated to macrophage-type cells by incubation with phorbol myristate acetate (PMA; 100 ng/ml) for 48 to 72 hours. Cells were pre-incubated with final concentrations of compound for 2 hrs. […] Coli: O111:B4, Sigma) for 4 hrs, and the supernatant collected for determination of TNFα and IL-8 concentration by sandwich ELISA (Duo-set, R&D systems). […] The inhibition of IL-8 production was calculated at each concentration of test compound by comparison with vehicle control.

The subject of data set [3] is U937 cells. In words: LPS-induced TNF alpha release in U937 cells. Format: cell-based. To be noted: Homo sapiens; read-out: DU937 (LPS) TNFα REC50. The protocol:
as §1

A further data set deals with THP-1 cells. The experiment in a line: LPS-induced TNF alpha release in THP-1 cells. To be noted: Homo sapiens, THP-1, read-out: THP-1 (LPS) TNFα IC50. Format: cell-based. Here is the method: LPS-Induced TNF Alpha Release in THP-1 Cells: Potency […] Coli; O111:B4, Sigma) for 4 hr and the supernatant collected for determination of TNFα concentration by sandwich ELISA (Duo-set, R&D systems). The inhibition of TNFα production was calculated at each concentration by comparison with vehicle control.

The next data set concerns the target T1, p38 MAPK alpha (MAPK14) (Homo sapiens, UniProt Q16539).
T1 construct: purchased Invitrogen
In words: Enzyme inhibition assay, p38 MAPK alpha (FRET, Z-LYTE, via MAPKAP-K2). To be noted: read-out: Enzyme p38α IC50. It is filed as biochemical.

Setting [4] is: Table 2, loss of cell viability at 1 μg/ml.
The mark [5] stands for this setting: Table 2, loss of cell viability, test conducted at 10 μg/ml.
[6] abbreviates: Table 3, first MTT column, loss of cell viability at 1 μg/ml.
Setting [7] is: Table 3, second MTT column, loss of cell viability at 1 μg/ml.

Read-outs that look alike come from different tables or passages of the source.

T1 sequence (Q16539 whole entry): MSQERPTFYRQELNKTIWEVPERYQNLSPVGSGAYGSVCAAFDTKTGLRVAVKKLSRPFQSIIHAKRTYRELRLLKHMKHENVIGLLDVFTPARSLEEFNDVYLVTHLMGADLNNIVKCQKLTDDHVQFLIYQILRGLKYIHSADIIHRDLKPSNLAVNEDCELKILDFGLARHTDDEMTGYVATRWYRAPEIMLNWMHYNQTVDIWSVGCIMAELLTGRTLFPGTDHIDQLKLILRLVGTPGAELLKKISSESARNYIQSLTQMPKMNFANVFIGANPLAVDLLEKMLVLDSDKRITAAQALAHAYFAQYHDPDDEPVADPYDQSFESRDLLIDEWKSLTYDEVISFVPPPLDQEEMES

The IC50 is the concentration needed to halve the response being measured. `Cc1ccc(-n2nc(C(C)(C)C)cc2NC(=O)Nc2ccc(Oc3ccnc(NC(=O)CNC(=O)CCN4CCOCC4)c3)c3ccccc23)cc1` [Example 19, N-(2-(4-(4-(3-(3-tert-Butyl-1-p-tolyl-1H-pyrazol-5-yl)ureido)naphthalen-1-yloxy)pyridin-2-ylamino)-2-oxoethyl)-3-morpholinopropanamide]: in data set [1] (setting [4]), the “DU937 (cell viability) MTT assay 4 h” value was “− (<=30%)”. Moreover, the “DU937 (cell viability) MTT assay 24 h” value in data set [1] (setting [4]) is listed as “+ (>30%)”. Also, the IC50 with BEAS2B cells (Table 2), in the data set with U937 cells [2] (Table 2), in the data set on THP-1 cells (Table 2) and on p38 MAPK alpha (MAPK14) (Table 2) was below 10 nM throughout. Besides, the EC50 with U937 cells [3] is below 10 nM.
As to `COCCNCC(=O)Nc1cc(Oc2ccc(NC(=O)Nc3cc(C(C)(C)C)nn3-c3ccc(C)cc3)c3ccccc23)ccn1` [Example 13, N-(4-(4-(3-(3-tert-Butyl-1-p-tolyl-1H-pyrazol-5-yl)ureido)naphthalen-1-yloxy)pyridin-2-yl)-2-(2-methoxyethylamino)acetamide], the “DU937 (cell viability) MTT assay 4 h” value in data set [1] (setting [5]) is “−^$ (<=30%)”. For the same molecule, the “DU937 (cell viability) MTT assay 24 h” value in data set [1] (setting [5]) is listed as “+^$ (>30%)”. Also, the half-maximal inhibitory concentration (IC50) with BEAS2B cells (Table 2), in the data set with U937 cells [2] (Table 2), in the data set with THP-1 cells (Table 2) and on p38 MAPK alpha (MAPK14) (Table 2) was below 10 nM in each case. Moreover, the EC50 in the data set with U937 cells [3] is below 10 nM.
Take `Cc1ccc(-n2nc(C(C)(C)C)cc2NC(=O)Nc2ccc(Oc3ccnc(NC(=O)NCC(=O)N4CCN(C)CC4)c3)c3ccccc23)cc1` [Example 61, 1-(2-(3-(4-(4-(3-(3-tert-Butyl-1-p-tolyl-1H-pyrazol-5-yl)ureido)naphthalen-1-yloxy)pyridin-2-yl)ureido)acetyl)-4-methylpiperazine]: the “DU937 (cell viability) MTT assay 4 h” value in data set [1] (setting [6]) and in data set [1] (setting [7]) was “− (<=30%)” throughout. For the same molecule, the half-inhibitory concentration (IC50) in the data set on BEAS2B cells (Table 3), in the data set with U937 cells [2] (Table 3), in the data set with THP-1 cells (Table 3) and on p38 MAPK alpha (MAPK14) (Table 3) was below 10 nM in each case. The EC50 with U937 cells [3] was below 10 nM.
For the molecule `Cc1ccc(-n2nc(C(C)(C)C)cc2NC(=O)Nc2ccc(Oc3ccnc(NC(=O)CO)c3)c3ccccc23)cc1` [Example 5, N-(4-(4-(3-(3-tert-Butyl-1-p-tolyl-1H-pyrazol-5-yl)ureido)naphthalen-1-yloxy)pyridin-2-yl)-2-hydroxyacetamide], in data set [1] (setting [5]), the “DU937 (cell viability) MTT assay 4 h” value was “+^$ (>30%)”. The “DU937 (cell viability) MTT assay 24 h” value in data set [1] (setting [5]) is “+^$ (>30%)”. Moreover, the IC50 is below 10 nM in the data set with BEAS2B cells (Table 2), below 10 nM with U937 cells [2] (Table 2), below 10 nM with THP-1 cells (Table 2) and below 5000 nM at p38 MAPK alpha (MAPK14) (Table 2). For the same molecule, in the data set on U937 cells [3], the EC50 is below 10 nM.
Regarding `Cc1ccc(-n2nc(C(C)(C)C)cc2NC(=O)Nc2ccc(Oc3ccnc(NC(=O)NCC(=O)N4CCCC4)c3)c3ccccc23)cc1` [Example 53, N-(2-(3-(4-(4-(3-(3-tert-Butyl-1-p-tolyl-1H-pyrazol-5-yl)ureido)naphthalen-1-yloxy)pyridin-2-yl)ureido)acetyl)pyrrolidine], the “DU937 (cell viability) MTT assay 4 h” value in data set [1] (setting [6]) and in data set [1] (setting [7]) was “− (<=30%)” in each case. The IC50 in the data set with BEAS2B cells (Table 3) is below 10 nM; with U937 cells [2] (Table 3), below 5000 nM; with THP-1 cells (Table 3), below 10 nM; on p38 MAPK alpha (MAPK14) (Table 3), below 10 nM. The EC50 in the data set on U937 cells [3] was below 10 nM.
For `Cc1ccc(-n2nc(C(C)(C)C)cc2NC(=O)Nc2ccc(Oc3ccnc(NC(=O)NCc4cc(C)no4)c3)c3ccccc23)cc1` [Example 49, N-(3-Methylisoxazol-5-yl)methyl-N′-4-(4-(3-(3-tert-butyl-1-p-tolyl-1H-pyrazol-5-yl)ureido)naphthalen-1-yloxy)pyridin-2-ylurea], the “DU937 (cell viability) MTT assay 4 h” value in data set [1] (setting [6]) and in data set [1] (setting [7]) was “− (<=30%)” in each case. Moreover, the IC50 with BEAS2B cells (Table 3) was below 5000 nM; in the data set on U937 cells [2] (Table 3) it was below 5000 nM; with THP-1 cells (Table 3), below 10 nM; on p38 MAPK alpha (MAPK14) (Table 3) it was below 10 nM. Also, the EC50 in the data set on U937 cells [3] is below 10 nM.
Consider `Cc1ccc(-n2nc(C(C)(C)C)cc2NC(=O)Nc2ccc(Oc3ccnc(NC(=O)N4CCCC4)c3)c3ccccc23)cc1` [Example 55, N-(4-(4-(3-(3-tert-Butyl-1-p-tolyl-1H-pyrazol-5-yl)ureido)naphthalen-1-yloxy)pyridin-2-yl)pyrrolidine-1-carboxamide], for which the “DU937 (cell viability) MTT assay 4 h” value in data set [1] (setting [6]) and in data set [1] (setting [7]) was “− (<=30%)” in each case. The IC50 with BEAS2B cells (Table 3), in the data set with U937 cells [2] (Table 3), with THP-1 cells (Table 3) and on p38 MAPK alpha (MAPK14) (Table 3) was below 10 nM throughout. Besides, in the data set with U937 cells [3], the EC50 is below 10 nM.
`COCC(=O)Nc1cc(Oc2ccc(NC(=O)Nc3cc(C(C)(C)C)nn3-c3ccc(C)cc3)c(C)c2C)ccn1` [Example 26, N-(4-(4-(3-(3-tert-Butyl-1-p-tolyl-1H-pyrazol-5-yl)ureido)-2,3-dimethylphenoxy)pyridin-2-yl)-2-methoxyacetamide]: the “DU937 (cell viability) MTT assay 4 h” value in data set [1] (setting [4]) is “− (<=30%)”. Also, the “DU937 (cell viability) MTT assay 24 h” value in data set [1] (setting [4]) is given as “+ (>30%)”. The IC50 was below 10 nM with BEAS2B cells (Table 2), below 10 nM in the data set with U937 cells [2] (Table 2), below 10 nM with THP-1 cells (Table 2) and below 5000 nM on p38 MAPK alpha (MAPK14) (Table 2). The EC50 in the data set on U937 cells [3] is below 10 nM.
For `Cc1ccc(-n2nc(C(C)(C)C)cc2NC(=O)Nc2ccc(Oc3ccnc(NC(=O)N4CCCCC4)c3)c3ccccc23)cc1` [Example 45, N-(4-((4-(3-(3-(tert-Butyl)-1-(p-tolyl)-1H-pyrazol-5-yl)ureido)naphthalen-1-yl)oxy)pyridin-2-yl)piperidine-1-carboxamide], the “DU937 (cell viability) MTT assay 4 h” value in data set [1] (setting [6]) and in data set [1] (setting [7]) was “− (<=30%)” throughout. For the same molecule, the IC50 in the data set with BEAS2B cells (Table 3), with U937 cells [2] (Table 3), with THP-1 cells (Table 3) and at p38 MAPK alpha (MAPK14) (Table 3) was below 10 nM in each case. In addition, the EC50 in the data set with U937 cells [3] is below 10 nM.
`COCC(=O)Nc1cc(Oc2ccc(NC(=O)Nc3cc(C(C)C)nn3-c3ccc(C)cc3)c3ccccc23)ccn1` [Example 6, N-(4-(4-(3-(3-Isopropyl-1-p-tolyl-1H-pyrazol-5-yl)ureido)naphthalen-1-yloxy)pyridin-2-yl)-2-methoxyacetamide]: the “DU937 (cell viability) MTT assay 4 h” value in data set [1] (setting [4]) was “− (<=30%)”. Further, the “DU937 (cell viability) MTT assay 24 h” value in data set [1] (setting [4]) is “− (<=30%)”. The 50% inhibitory concentration (IC50) is below 5000 nM in the data set on BEAS2B cells (Table 2), below 5000 nM in the data set with U937 cells [2] (Table 2), below 10 nM with THP-1 cells (Table 2) and below 10 nM at p38 MAPK alpha (MAPK14) (Table 2). In the data set on U937 cells [3], the EC50 is below 10 nM.
With `COCC(=O)NCC(=O)Nc1cc(Oc2ccc(NC(=O)Nc3cc(C(C)(C)C)nn3-c3ccc(C)cc3)c3ccccc23)ccn1` [Example 15, N-(4-(4-(3-(3-tert-Butyl-1-p-tolyl-1H-pyrazol-5-yl)ureido)naphthalen-1-yloxy)pyridin-2-yl)-2-(2-methoxyacetamido)acetamide], the “DU937 (cell viability) MTT assay 4 h” value in data set [1] (setting [4]) is listed as “− (<=30%)”. The “DU937 (cell viability) MTT assay 24 h” value in data set [1] (setting [4]) is given as “+ (>30%)”. Moreover, the IC50 in the data set with BEAS2B cells (Table 2), with U937 cells [2] (Table 2), with THP-1 cells (Table 2) and on p38 MAPK alpha (MAPK14) (Table 2) was below 10 nM throughout. Also, the EC50 in the data set with U937 cells [3] was below 10 nM.
With `Cc1ccc(-n2nc(C(C)(C)C)cc2NC(=O)Nc2ccc(Oc3ccnc(NC(=O)NCC(=O)N4CCOCC4)c3)c3ccccc23)cc1` [Example 58, 2-(3-(4-(4-(3-(3-tert-Butyl-1-p-tolyl-1H-pyrazol-5-yl)ureido)naphthalen-1-yloxy)pyridin-2-yl)ureido)acetyl morpholine], the “DU937 (cell viability) MTT assay 4 h” value in data set [1] (setting [6]) and in data set [1] (setting [7]) was “− (<=30%)” in each case. In addition, the IC50 with BEAS2B cells (Table 3), in the data set with U937 cells [2] (Table 3), in the data set on THP-1 cells (Table 3) and on p38 MAPK alpha (MAPK14) (Table 3) was below 10 nM in each case.

These data come from patent US8299074B2, “P38 MAP kinase inhibitors” (RespiVert Ltd., priority 2008, dated 2012).
